For one assay, the target named is T1, p38 kinase (Homo sapiens, UniProt Q16539).
T1 construct: GST (N); made in house; host or cells: E. coli
Description: p38 Kinase Assay. Format: biochemical. The following applies: Table 9; p38 assays using Assay II; read-out: p38 IC50. The procedure:
The peptide substrate used in the p38 assay was biotin-IPTSPITTTYFFFRRR-amide. The p38 and MEK6 proteins were purified to homogeneity from E. coli expression systems. The fusion proteins were tagged at the N-terminus with Glutathione-S-Transferase (GST). The maximum activation was achieved by incubating 20 uL of a reaction mixture of 30 nM MEK6 protein and 120 nM p38 protein in the presence of 1.5 uM peptide and 10 mM Mg (CH3CO2)2 in 100 mM HEPES7 pH 7.5, added to 15 uL of a mixture of 1.5 uM ATP with 0.08 uCi [g-^33P]ATP, with or without 15 uL of inhibitor in 6% DMSO. The controls were reactions in the presence (negative controls) or absence (positive controls) of 50 mM EDTA. Reactions were allowed to proceed for 60 min at room temperature and quenched with addition of 50 uL of 250 mM EDTA and mixed with 150 uL of Streptavidin SPA beads (Amersham) to 0.5 mg/reaction. The Dynatech Microfluor white U-bottom plates were sealed and the beads were allowed to settle overnight. The plates were counted in a Packard TopCount for 60 seconds. IC50 values were obtained by fitting raw data to % I=100*(1−(I−C2)/(C1−C2)), where I was […], C1 was positive control, and C2 was negative control.

Assay [1] deals with T2, JNK3 kinase (Jnk-3alpha-2) (Homo sapiens, UniProt P53779).
T2 construct: Jnk-3alpha-2 (as a truncated construct, residues 39 to 224) was expressed in E. coli as a GST fusion protein; Following purification the GST portion was removed by thrombin cleavage; fused on or other part: An N-terminal GST tag was used for expression and removed by thrombin cleavage before the assay
Description: JNK3 Kinase Assay. Particulars: Table 9; read-out: JNK3 IC50. Format: biochemical. The method, then: JNK3 Kinase Assay Jnk-3alpha-2 (as a truncated construct, residues 39 to 224) was expressed in E. coli as a GST fusion protein. Following purification the GST portion was removed by thrombin cleavage. The enzyme was stored at −80° C. Substrate c-Jun was expressed as a GST fusion protein including a signal peptide (biotinylation site) in E. coli. Following purification the substrate was biotinylated on a specific lysine in the signal peptide using biotin ligase. Prior to assay Jnk-3 was pre-activated by incubation with MgATP. The enzyme (10 nM) was screened in 40 mM HEPES (pH 7.4), 150 mM NaCl, 20 mM glycerophosphate, 1 mM DTT, 0.2 mM vanadate, 200 nM biotin-c-Jun, 5 mM MgCl2 and 10 uM ATP. Inhibitors were added over a conc range of from 0 to 10 uM in DMSO (fc 3%). The reaction was stopped by the addition of 25 mM EDTA. Phospho-c-Jun was detected using homogeneous time resolved fluorescence (HTRF) with a Eu-labelled antiphosphoserine (Serine 73) and streptavidin APC.

T1 sequence (Q16539 whole entry): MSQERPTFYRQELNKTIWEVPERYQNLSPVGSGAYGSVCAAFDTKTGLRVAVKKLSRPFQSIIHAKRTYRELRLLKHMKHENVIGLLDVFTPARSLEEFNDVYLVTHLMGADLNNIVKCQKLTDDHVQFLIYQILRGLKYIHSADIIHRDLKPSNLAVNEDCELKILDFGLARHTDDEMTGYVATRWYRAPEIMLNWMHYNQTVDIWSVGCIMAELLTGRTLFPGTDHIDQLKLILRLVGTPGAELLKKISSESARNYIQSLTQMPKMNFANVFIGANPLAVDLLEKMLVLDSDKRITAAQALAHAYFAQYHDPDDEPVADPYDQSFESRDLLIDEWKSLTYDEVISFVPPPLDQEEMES
T2 sequence (P53779 39-402 limits assumed): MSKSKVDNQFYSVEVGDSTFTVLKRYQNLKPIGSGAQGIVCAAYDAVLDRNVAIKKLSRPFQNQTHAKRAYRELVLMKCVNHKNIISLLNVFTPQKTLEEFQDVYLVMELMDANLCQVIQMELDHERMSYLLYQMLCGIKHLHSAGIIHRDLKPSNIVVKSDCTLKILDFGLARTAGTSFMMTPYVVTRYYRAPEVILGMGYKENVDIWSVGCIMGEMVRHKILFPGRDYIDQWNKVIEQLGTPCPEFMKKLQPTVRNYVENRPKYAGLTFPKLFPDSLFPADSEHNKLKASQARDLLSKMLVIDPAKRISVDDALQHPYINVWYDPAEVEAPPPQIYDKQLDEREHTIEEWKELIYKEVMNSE

Regarding `CCCN(CCC)CCNc1nccc(-c2c(-c3cccc(Cl)c3)nn3cc(C(F)(F)F)ccc23)n1` [Example 99, N-{4-[2-(3-chlorophenyl)-6-(trifluoromethyl)pyrazolo[1,5-a]pyridin-3-yl]pyrimidin-2-yl}-N-[2-(dipropylamino)ethyl]amine], the figures for the IC50 (at p38 kinase; in assay [1]) were 100 to 1000 nM and 1000 to 10000 nM, respectively.

With `CC(C)N(CCNc1nccc(-c2c(-c3ccc(F)c(Cl)c3)nn3cc(C(F)(F)F)ccc23)n1)C(C)C` [Example 100, N-{4-[2-(3-chloro-4-fluorophenyl)-6-(trifluoromethyl)pyrazolo-[1,5-a]pyridin-3-yl]pyrimidin-2-yl}-N-[2-(diisopropylamino)ethyl]amine], the IC50 (in general, the concentration needed to halve the response being measured) at p38 kinase lay within 100 to 1000 nM; in assay [1], 1000 to 10000 nM.

As to `Fc1ccc(-c2nn3cc(C(F)(F)F)ccc3c2-c2ccnc(NCCN3CCCC3)n2)cc1Cl` [Example 104, N-{4-[2-(3-chloro-4-fluorophenyl)-6-(trifluoromethyl)pyrazolo-[1,5-a]pyridin-3-yl]pyrimidin-2-yl}-N-(2-pyrrolidin-1-ylethyl)amine], the IC50 on p38 kinase was 100 to 1000 nM; in assay [1], 1000 to 10000 nM.

Regarding `FC(F)(F)c1ccc2c(-c3ccnc(NCCN4CCCC4)n3)c(-c3cccc(Cl)c3)nn2c1` [Example 105, N-{4-[2-(3-chlorophenyl)-6-(trifluoromethyl)pyrazolo[1,5-a]pyridin-3-yl]pyrimidin-2-yl}-N-(2-pyrrolidin-1-ylethyl)amine], the concentration for half-maximal inhibition (IC50) lay in the range of 100 to 1000 nM at p38 kinase and 1000 to 10000 nM in assay [1].

Turning to `FC(F)(F)c1ccc2c(-c3ccnc(NCCCCN4CCCC4)n3)c(-c3cccc(Cl)c3)nn2c1` [Example 106, N-{4-[2-(3-chlorophenyl)-6-(trifluoromethyl)pyrazolo[1,5-a]pyridin-3-yl]pyrimidin-2-yl}-N-(4-pyrrolidin-1-ylbutyl)amine], the 50% inhibitory concentration (IC50) at p38 kinase was 10 to 100 nM; in assay [1] it was 100 to 1000 nM.

Turning to `Fc1ccc(-c2nn3cc(C(F)(F)F)ccc3c2-c2ccnc(NCCN3CCCCC3)n2)cc1Cl` [Example 109, N-{4-[2-(3-chloro-4-fluorophenyl)-6-(trifluoromethyl)pyrazolo[1,5-a]pyridin-3-yl]pyrimidin-2-yl}-N-(2-piperidin-1-ylethyl)amine], the results for the IC50 (on p38 kinase; in assay [1]) were 100 to 1000 nM and 1000 to 10000 nM, respectively.

For the compound `FC(F)(F)c1ccc2c(-c3ccnc(NCCN4CCCCC4)n3)c(-c3cccc(Cl)c3)nn2c1` [Example 110, N-{4-[2-(3-chlorophenyl)-6-(trifluoromethyl)pyrazolo[1,5-a]pyridin-3-yl]pyrimidin-2-yl}-N-(2-piperidin-1-ylethyl)amine], the half-maximal inhibitory concentration (IC50) at p38 kinase was in the range of 100 to 1000 nM; in assay [1] it was 1000 to 10000 nM.

Turning to `FC(F)(F)c1ccc(-c2nn3cc(C(F)(F)F)ccc3c2-c2ccnc(NCCCN3CCCCC3)n2)cc1` [Example 112, N-(3-piperidin-1-ylpropyl)-N-(4-{6-(trifluoromethyl)-2-[4-(trifluoromethyl)phenyl]pyrazolo[1,5-a]pyridin-3-yl}pyrimidin-2-yl)amine], the IC50 (on p38 kinase; in assay [1]) was 1000 to 10000 nM in each case.

In the case of `Fc1ccc(-c2nn3cc(C(F)(F)F)ccc3c2-c2ccnc(NCCCN3CCCCC3)n2)cc1Cl` [Example 113, N-{4-[2-(3-chloro-4-fluorophenyl)-6-(trifluoromethyl)pyrazolo[1,5-a]pyridin-3-yl]pyrimidin-2-yl}-N-(3-piperidin-1-ylpropyl)amine], the IC50 (at p38 kinase; in assay [1]) was 100 to 1000 nM in each case.

Regarding `Fc1ccc(-c2nn3cc(C(F)(F)F)ccc3c2-c2ccnc(NCCN3CCCCCC3)n2)cc1Cl` [Example 116, N-(2-azepan-1-ylethyl)-N-{4-[2-(3-chloro-4-fluorophenyl)-6-(trifluoromethyl)pyrazolo[1,5-a]pyridin-3-yl]pyrimidin-2-yl}amine], the 50% inhibitory concentration (IC50) fell in the range of 100 to 1000 nM at p38 kinase and 1000 to 10000 nM in assay [1].

Consider `FC(F)(F)c1ccc2c(-c3ccnc(NCCN4CCCCCC4)n3)c(-c3cccc(Cl)c3)nn2c1` [Example 117, N-(2-azepan-1-ylethyl)-N-{4-[2-(3-chlorophenyl)-6-(trifluoromethyl)pyrazolo[1,5-a]pyridin-3-yl]pyrimidin-2-yl}amine], for which the concentration for half-maximal inhibition (IC50) fell in the range of 100 to 1000 nM on p38 kinase and 1000 to 10000 nM in assay [1].

Consider `Fc1ccc(-c2nn3cc(C(F)(F)F)ccc3c2-c2ccnc(NCCN3CCOCC3)n2)cc1Cl` [Example 120, N-{4-[2-(3-chloro-4-fluorophenyl)-6-(trifluoromethyl)pyrazolo[1,5-a]pyridin-3-yl]pyrimidin-2-yl}-N-(2-morpholin-4-ylethyl)amine], for which the half-inhibitory concentration (IC50) lay in the range of 10 to 100 nM on p38 kinase and 100 to 1000 nM in assay [1].

Regarding `Fc1ccc(-c2nn3cc(C(F)(F)F)ccc3c2-c2ccnc(NCCCN3CCOCC3)n2)cc1Cl` [Example 122, N-{4-[2-(3-chloro-4-fluorophenyl)-6-(trifluoromethyl)pyrazolo[1,5-a]pyridin-3-yl]pyrimidin-2-yl}-N-(3-morpholin-4-ylpropyl)amine], the IC50 (at p38 kinase; in assay [1]) was 100 to 1000 nM throughout.

As to `FC(F)(F)c1ccc2c(-c3ccnc(NCCCN4CCOCC4)n3)c(-c3cccc(Cl)c3)nn2c1` [Example 123, N-{4-[2-(3-chlorophenyl)-6-(trifluoromethyl)pyrazolo[1,5-a]pyridin-3-yl]pyrimidin-2-yl}-N-(3-morpholin-4-ylpropyl)amine], the IC50 on p38 kinase was in the range of 10 to 100 nM; in assay [1], 100 to 1000 nM.

For the compound `CN1CCN(CCCNc2nccc(-c3c(-c4ccc(F)cc4)nn4cc(C(F)(F)F)ccc34)n2)CC1` [Example 124, N-{4-[2-(4-fluorophenyl)-6-(trifluoromethyl)pyrazolo[1,5-a]pyridin-3-yl]pyrimidin-2-yl}-N-[3-(4-methylpiperazin-1-yl)propyl]amine], the concentration for half-maximal inhibition (IC50) at p38 kinase is 10 to 100 nM; in assay [1], 100 to 1000 nM.

Turning to `CN1CCN(CCCNc2nccc(-c3c(-c4ccc(F)c(Cl)c4)nn4cc(C(F)(F)F)ccc34)n2)CC1` [Example 125, N-{4-[2-(3-chloro-4-fluorophenyl)-6-(trifluoromethyl)pyrazolo-[1,5-a]pyridin-3-yl]pyrimidin-2-yl}-N-[3-(4-methylpiperazin-1-yl)propyl]amine], the 50% inhibitory concentration (IC50) lay in the range of 10 to 100 nM on p38 kinase and 100 to 1000 nM in assay [1].

Regarding `CCCN1CCN(CCNc2nccc(-c3c(-c4ccc(C(F)(F)F)cc4)nn4cc(C(F)(F)F)ccc34)n2)CC1` [Example 127, N-[2-(4-propylpiperazin-1-yl)ethyl]-N-(4-{6-(trifluoromethyl)-2-[4-(trifluoromethyl)phenyl]pyrazolo[1,5-a]pyridin-3-yl}pyrimidin-2-yl)amine], the IC50 (on p38 kinase; in assay [1]) was 1000 to 10000 nM in each case.

Consider `CCCN1CCN(CCNc2nccc(-c3c(-c4ccc(F)c(Cl)c4)nn4cc(C(F)(F)F)ccc34)n2)CC1` [Example 128, N-{4-[2-(3-chloro-4-fluorophenyl)-6-(trifluoromethyl)pyrazolo-[1,5-a]pyridin-3-yl]pyrimidin-2-yl}-N-[2-(4-propylpiperazin-1-yl)ethyl]amine], for which the concentration for half-maximal inhibition (IC50) is 10 to 100 nM on p38 kinase and 100 to 1000 nM in assay [1].

Regarding `CCCN1CCN(CCNc2nccc(-c3c(-c4cccc(Cl)c4)nn4cc(C(F)(F)F)ccc34)n2)CC1` [Example 129, N-{4-[2-(3-chlorophenyl)-6-(trifluoromethyl)pyrazolo[1,5-a]pyridin-3-yl]pyrimidin-2-yl}-N-[2-(4-propylpiperazin-1-yl)ethyl]amine], the IC50 is 10 to 100 nM on p38 kinase and 100 to 1000 nM in assay [1].
